Assay results taken from patent US8716282B2, “Imidazo[1,2-b]pyridazine derivatives and their use as PDE10 inhibitors” (Janssen Pharmaceutica NV, priority 2009, dated 2014).
≈ marks a conversion by molar mass, not a printed value. Like-named read-outs stand apart in the source and are kept apart here.

Experiments:
[1] = tested on: novel object recognition in female hooded-Lister rats; test: Object recognition test (NOR), sub-chronic PCP; assay type: in vivo, rat; settings: for effects of acute treatment in the NOR task: compound 1 0.3-1.0 mg/kg, PQ10 1.0 mg/kg, oral, 30 min prior to testing
Method: 60 female hooded-Lister rats (Charles River, UK) were used as subjects for these studies and weighed 248 g±20 g. Rats were allowed at least a 7-day acclimatization period to the animal unit prior to commencement of experimentation. Rats were housed in groups of 5 under standard laboratory conditions under a 12 h light:dark cycle, lights on at 0700 h. All testing was carried out in the light phase. Food and water were freely provided. All experiments were conducted in accordance with the Animals Scientific Procedures Act, U.K. 1986 and were approved by the University of Bradford ethical review panel.
40 mg of test compound was dissolved in 5 ml of 40% hydroxypropyl β-cyclodextrin (HPBC) solution. The solution was sonicated until completely dissolved. 2 ml of sterile water was added and the pH measured and adjusted with NaOH solution (0.1N) to obtain pH ˜4. Finally, sterile water was added to a final volume of 10 ml. This stock solution was then diluted in 20% HPBC to obtain the final concentrations.
100 mg of PQ10 was dissolved in a 40% HPBC solution and 8 mg of tartaric acid. The solution was sonicated until completely dissolved. 5 ml of sterile water was added and the pH measured and adjusted with NaOH solution (0.1N) to obtain pH ˜4. Finally sterile water was added to a final volume of 10 ml.
Test compound was administered at doses of 0.3 and 1.0 mg/kg via the oral route 30 min prior to testing.
PQ10 was administered at a dose of 1.0 mg/kg via the oral route 30 min prior to testing.
Certain pre-clinical tests allow the observation of relatively subtle cognitive deficits in the rat that resemble cognitive symptoms in subjects with schizophrenia. The cognitive deficits observed are seen in behaviours such as episodic memory, which can be measured by recognition tasks such as the novel object recognition (NOR) paradigm. A recognition memory task allows the comparison between presented stimuli and previously stored information. […] Object recognition in rats can be measured as the difference in time spent exploring the familiar and the new object. […]

[2] = Solubility as a function of pH at 20° C.; assay type: physicochemical
Method: After removing the undissolved compound (0.45 μm Millex LCR filter), the concentration in the solution was determined using UV spectrometry. The pH of the solution was measured.

[3] = Intrinsic dissolution rate (IDR) of miniaturized pellets; assay type: physicochemical; settings: 37.0±0.5° C.; for Average IDR: 0.01M HCl at 100 rpm, miniaturized pellets; for intrinsic dissolution rate (IDR): pellets of 0.0754 cm^2
Method: The intrinsic dissolution rate was measured using a DISS Profiler™ system consisting in both a mini-bath and UV fiber optic (5 mm pathlength) probes connected to a photodiode array (PDA) spectrophotometer (from pION Inc). Each pellet prepared were positioned in individual vessels. The intrinsic dissolution test was performed using 0.01 M HCl (20 mL) maintained at 37.0±0.5° C. with a stirring rate of 100 rpm. The concentration measurements were performed using UV detection at 326 nm. The intrinsic dissolution rate (IDR) was calculated by dividing the dissolution rate by the exposure area of pellet (0.0754 cm^2).

[4] = Adsorption-desorption (dynamic vapor sorption); assay type: physicochemical; settings: for weight loss during the initial drying step: 60 min. under dry nitrogen at 25° C.; for hygroscopic behavior / physical form during the DVS test: DVS, 25° C., RH 0-95%
[5] = target: T1, Rat recombinant PDE10A (rPDE10A2) (Rattus norvegicus, UniProt Q9QYJ6); test: In vitro assay PDE10A (SPA, 3H-cAMP); assay type: biochemical; settings: Table 3; −log IC50 expressed in mol/L
T1 construct: inferred from metal chelate purification; made in house; host or cells: Sf9 insect cells, baculovirus
T1 sequence (Q9QYJ6 1-794): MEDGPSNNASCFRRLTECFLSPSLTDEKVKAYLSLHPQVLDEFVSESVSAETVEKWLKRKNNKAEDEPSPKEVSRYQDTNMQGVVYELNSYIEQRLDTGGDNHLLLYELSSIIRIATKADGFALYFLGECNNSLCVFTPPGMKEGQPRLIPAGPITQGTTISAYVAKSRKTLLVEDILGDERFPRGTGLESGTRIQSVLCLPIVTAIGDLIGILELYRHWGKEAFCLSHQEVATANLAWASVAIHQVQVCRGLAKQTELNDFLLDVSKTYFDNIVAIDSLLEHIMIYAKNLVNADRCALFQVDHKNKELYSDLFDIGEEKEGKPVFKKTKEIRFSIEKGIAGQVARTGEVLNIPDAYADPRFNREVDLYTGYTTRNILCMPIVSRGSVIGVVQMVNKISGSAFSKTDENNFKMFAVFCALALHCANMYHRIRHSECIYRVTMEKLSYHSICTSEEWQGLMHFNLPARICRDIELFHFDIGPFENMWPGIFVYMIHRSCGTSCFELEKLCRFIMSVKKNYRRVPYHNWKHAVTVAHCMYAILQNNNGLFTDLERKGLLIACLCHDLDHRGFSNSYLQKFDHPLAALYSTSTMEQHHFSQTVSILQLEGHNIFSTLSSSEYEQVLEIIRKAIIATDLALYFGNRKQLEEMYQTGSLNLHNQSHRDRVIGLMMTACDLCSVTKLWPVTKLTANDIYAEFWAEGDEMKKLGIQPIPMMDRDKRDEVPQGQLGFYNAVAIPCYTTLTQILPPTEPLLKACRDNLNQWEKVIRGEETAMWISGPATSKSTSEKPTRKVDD
Method: Rat recombinant PDE10A (rPDE10A2) was expressed in Sf9 cells using a recombinant rPDE10A baculovirus construct. Cells were harvested after 48 h of infection and the rPDE10A protein was purified by metal chelate chromatography on Ni-sepharose 6FF. Tested compounds were dissolved and diluted in 100% DMSO to a concentration 100 fold of the final concentration in the assay. […] 10 μl of rPDE10A enzyme in incubation buffer was added and the reaction was started by addition of 10 μl substrate to a final concentration of 60 nM cAMP and 0.008 μCi ^3H-cAMP. The reaction was incubated for 60 minutes at room temperature. […] After sedimentation of the beads during 30 minutes the radioactivity was measured in a Perkin Elmer Topcount scintillation counter and results were expressed as cpm. For blanc values the enzyme was omitted from the reaction and replaced by incubation buffer. Control values were obtained by addition of a final concentration of 1% DMSO instead of compound. The same assay principle is applied for the measurement of the affinity of the compound for other members of the PDE family with appropriate modifications in incubation buffer, substrate concentration, incubation time and stop solution.

[6] = tested on: apomorphine-induced stereotypy in rats; test: Apomorphine-induced stereotypy in rats (APO); assay type: in vivo, rat; settings: n.d. = found not active at threshold dose 2.5 mg/kg, or 10 mg/kg if (a)
Method: Apomorphine (1.0 mg/kg, i.v.)-induced stereotypy (compulsive sniffing, licking, chewing) was scored every 5 min over the first hour after injection of apomorphine, following a 1 hour interval pre-treatment with the test compound. The score system was: (3) pronounced, (2) moderate, (1) slight, and (0) absent.

With `COCCc1ccc(-c2c(C)nc3c(N4CCOCC4)ccnn23)cn1` [Compound 1, 3-[6-(2-methoxyethyl)-3-pyridinyl]-2-methyl-8-(4-morpholinyl)-imidazo[1,2-b]pyridazine] the “effects of acute treatment in the NOR task” value [1] was “selective for the retention phase of the NOR task”, the solubility ([2]; aqueous buffer, thermodynamic from solid, borate-KCl—NaOH buffer pH 9, pH of solution 8.9, anhydrous free base) was 0.009 mg/mL (≈ 25.5 µM) and the solubility ([2]; aqueous buffer, thermodynamic from solid, citrate-NaOH buffer pH 5, pH of solution 5.0, anhydrous free base) was 0.012 mg/mL (≈ 34 µM). For the same compound, the solubility ([2]; aqueous buffer, thermodynamic from solid, citrate-NaOH—HCl buffer pH 2, pH of solution 2.9, anhydrous free base) was 0.61 mg/mL (≈ 1730 µM), the solubility ([2]; aqueous buffer, thermodynamic from solid, phosphate buffer pH 7, pH of solution 7.0, anhydrous free base) was 0.008 mg/mL (≈ 22.6 µM) and the solubility ([2]; aqueous buffer, thermodynamic from solid, phosphate-NaOH buffer pH 12, pH of solution 11.9, anhydrous free base) was 0.008 mg/mL (≈ 22.6 µM). The solubility ([2]; pH 2.5, simulated gastric fluid, thermodynamic from solid, 0.1N HCl, pH of solution 2.5, anhydrous free base) was 2.5 mg/mL (≈ 7070 µM), the solubility ([2]; pH 3, simulated gastric fluid, thermodynamic from solid, 0.01N HCl, pH of solution 3.0, anhydrous free base) was 0.32 mg/mL (≈ 905 µM) and the solubility ([2]; pH 8.7, thermodynamic from solid, water, pH of solution 8.7, anhydrous free base) was 0.009 mg/mL (≈ 25.5 µM). For the same compound, the solubility ([2]; pH 12.9, aqueous buffer, thermodynamic from solid, 0.1N NaOH, pH of solution 12.9, anhydrous free base) was 0.008 mg/mL (≈ 22.6 µM), the “Average IDR” value [3] was 0.8170 mg · min^−1 · cm^−2 and the “intrinsic dissolution rate (IDR)” value ([3]; 0.01 M HCl, 100 rpm) was 0.82 mg·min^−1·cm^−2. For the same compound, the “weight loss during the initial drying step” value [4] was 0.06%, the hygroscopic behavior [4] was “no hygroscopic behavior” and the “physical form during the DVS test” value [4] was “remained the same physical form”.

With `COCCc1ccc(-c2c(C)nc3c(N4CCOCC4)ccnn23)cn1.O` [Compound 1c, 3-[6-(2-methoxyethyl)-3-pyridinyl]-2-methyl-8-(4-morpholinyl)-imidazo[1,2-b]pyridazine monohydrate] the “Average IDR” value [3] was 1.1011 mg · min^−1 · cm^−2 and the “intrinsic dissolution rate (IDR)” value ([3]; 0.01 M HCl, 100 rpm) was 1.10 mg·min^−1·cm^−2.

Compound `COCCc1ccc(-c2c(C)nc3c(N4CCOCC4)ccnn23)cn1.O=P(O)(O)O` [Compound 1d, 3-[6-(2-methoxyethyl)-3-pyridinyl]-2-methyl-8-(4-morpholinyl)-imidazo[1,2-b]pyridazine phosphate] has a solubility ([2]; aqueous buffer, thermodynamic from solid, borate-KCl—NaOH buffer pH 9, pH of solution 7.4, phosphate salt, read-out: Solubility (mg/mL) of compound 1d) of 0.1 mg/mL, a solubility ([2]; aqueous buffer, thermodynamic from solid, citrate-NaOH buffer pH 5, pH of solution 4.9, phosphate salt, read-out: Solubility (mg/mL) of compound 1d) of 0.14 mg/mL and a solubility ([2]; aqueous buffer, thermodynamic from solid, citrate-NaOH—HCl buffer pH 2, pH of solution 2.5, phosphate salt, read-out: Solubility (mg/mL) of compound 1d) of 20.2 mg/mL. The solubility ([2]; aqueous buffer, thermodynamic from solid, phosphate buffer pH 7, pH of solution 6.8, phosphate salt, read-out: Solubility (mg/mL) of compound 1d) was 0.09 mg/mL, the solubility ([2]; aqueous buffer, thermodynamic from solid, phosphate-NaOH buffer pH 12, pH of solution 11.2, phosphate salt, read-out: Solubility (mg/mL) of compound 1d) was 0.1 mg/mL and the “solubility compared to the anhydrous free base form (compound 1)” value ([2]; in vitro results) was “much higher solubility”. The solubility ([2]; pH 2.1, simulated gastric fluid, thermodynamic from solid, 0.1N HCl, pH of solution 2.1, phosphate salt, read-out: Solubility (mg/mL) of compound 1d) was 46 mg/mL, the solubility ([2]; pH 2.5, simulated gastric fluid, thermodynamic from solid, 0.01N HCl, pH of solution 2.5, phosphate salt, read-out: Solubility (mg/mL) of compound 1d) was 11.9 mg/mL and the solubility ([2]; pH 2.6, thermodynamic from solid, water, pH of solution 2.6, phosphate salt, read-out: Solubility (mg/mL) of compound 1d) was 9.7 mg/mL. The solubility ([2]; pH 12.5, aqueous buffer, thermodynamic from solid, 0.1N NaOH, pH of solution 12.5, phosphate salt, read-out: Solubility (mg/mL) of compound 1d) was 0.1 mg/mL, the “Average IDR” value [3] was 2.5172 mg · min^−1 · cm^−2 and the “time until pellets were totally dissolved” value ([3]; 0.01 M HCl, 100 rpm) was ≤ 10 min. For the same compound, the “intrinsic dissolution rate (IDR)” value ([3]; 0.01 M HCl, 100 rpm) was 2.52 mg·min^−1·cm^−2, the “weight loss during the initial drying step” value [4] was 0.3% and the hygroscopic behavior [4] was “no hygroscopic behavior”. The “physical form during the DVS test” value [4] was “remains crystalline”.

For `COCCOc1cncc(-c2c(C)nc3c(-c4ccncc4)ccnn23)c1` [Compound 149, 3-[5-(2-methoxyethoxy)-3-pyridinyl]-2-methyl-8-(4-pyridinyl)-imidazo[1,2-b]pyridazine], the “PDE10A2 pIC50” value [5] was 6.82 and the “APO ED50 (mg/kg)” value [6] was “n.d. (n.d. means the compound was found not active at 2.5 or at 10 mg/kg (the latter being indicated as (a)), taken as threshold value, and was not further tested.)”.

With `COc1cc2ncnc(N3CC[C@@H](Oc4cnc5ccccc5n4)C3)c2cc1OC` [PQ10] the “T2(A) exploration time of familiar object, retention trial” value ([1]; PCP + 1 mg/kg p.o., mean) was 7.9 s and the “effects of acute treatment in the NOR task” value [1] was “selective for the retention phase of the NOR task”.
